# Measurements from the supplement of paper PMC10307832.
# Key:
# Experiment in all cases: relative viability (nuclei count vs DMSO), 5 days (fraction); higher = more cells survive
# [1] = compound: Cc1nc(C(=O)NCC(=O)O)c(O)c2ccc(Oc3ccccc3)cc12 [FG-4592] + COc1cc2c(Oc3ccc(NC(=O)C4(C(=O)Nc5ccc(F)cc5)CC4)cc3F)ccnc2cc1OCCCN1CCOCC1 [Foretinib] (partner 0.25 µM)
# Outline: (§1)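 Relative viability was taken as the ratio of nuclei in treated wells to nuclei in vehicle wells. Lung cancer cell lines in 1536-well plates received compounds by pin tool one day after seeding, either one drug alone or a fixed anchor-drug dose plus five library-drug doses (not always all listed) in √10 steps. Nuclei were counted on 4× images after 5 days of treatment, and values are medians of duplicate plates.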
# [2] = compound: CC1=CC(=C(N1C2=CC=C(C=C2)Cl)C)C(=O)CN3CCCCC3 [IU1-47] + Cc1nc(Nc2ncc(C(=O)Nc3c(C)cccc3Cl)s2)cc(N2CCN(CCO)CC2)n1 [Dasatinib] (partner 0.075 µM)
# Outline: as §1
# [3] = compound: Cc1nc(C(=O)NCC(=O)O)c(O)c2ccc(Oc3ccccc3)cc12 [FG-4592] + CC(=O)Nc1cccc(-n2c(=O)n(C3CC3)c(=O)c3c(Nc4ccc(I)cc4F)n(C)c(=O)c(C)c32)c1 [Trametinib] (partner 0.02 µM)
# Outline: as §1
# [4] = compound: CC1=CC(=C(N1C2=CC=C(C=C2)Cl)C)C(=O)CN3CCCCC3 [IU1-47] + CC(C)C[C@H](NC(=O)[C@H](Cc1ccccc1)NC(=O)c1cnccn1)B(O)O [Bortezomib] (partner 0.002 µM)
# Outline: as §1
Cell Line,relative viability ([1]; first compound 0.08 µM),relative viability ([1]; first compound 0.253 µM),relative viability ([1]; first compound 0.8 µM),relative viability ([1]; first compound 2.53 µM),relative viability ([1]; first compound 8 µM),relative viability ([2]; first compound 0.08 µM),relative viability ([2]; first compound 0.253 µM),relative viability ([2]; first compound 0.8 µM),relative viability ([2]; first compound 2.53 µM),relative viability ([2]; first compound 8 µM),relative viability ([3]; first compound 0.08 µM),relative viability ([3]; first compound 0.253 µM),relative viability ([3]; first compound 0.8 µM),relative viability ([3]; first compound 2.53 µM),relative viability ([3]; first compound 8 µM),relative viability ([4]; first compound 0.08 µM),relative viability ([4]; first compound 0.253 µM),relative viability ([4]; first compound 0.8 µM),relative viability ([4]; first compound 2.53 µM),relative viability ([4]; first compound 8 µM)
NCI-H1975,0.986,0.949,1.07,0.956,0.833,0.329,0.343,0.372,0.318,0.361,0.33,0.292,0.337,0.24,0.184,0.375,0.408,0.455,0.308,0.317
CAL-12T,1.05,0.746,1.06,1.02,1.01,0.413,0.388,0.436,0.263,0.344,0.367,0.307,0.301,0.29,0.219,1.05,0.946,0.945,0.972,0.802
NCI-H1623,0.825,0.846,0.795,0.731,0.724,0.588,0.571,0.588,0.591,0.555,,,,,,,,,,
HCC-44,,,,,,,,,,,1.06,1.08,1.1,0.991,1.08,0.891,0.851,0.89,0.873,0.898
EKVX,0.744,0.804,0.773,0.717,1.04,0.564,0.577,0.691,0.34,0.389,0.318,0.352,0.334,0.332,0.24,1.18,1.11,1.18,1.13,0.985
NCI-H1651,0.863,0.773,0.88,0.901,0.839,0.325,0.412,0.454,0.414,0.39,0.85,0.836,0.76,0.774,0.82,0.988,0.977,0.995,0.946,0.89
NCI-H1944,0.928,0.816,0.941,0.85,0.934,0.213,0.214,0.204,0.2,0.203,0.426,0.409,0.464,0.422,0.371,,,,,
NCI-H1703,,0.312,0.34,0.321,0.339,,,,,,,,,,,0.278,0.354,0.273,0.403,0.504
Calu-6,0.907,0.887,0.966,0.924,0.758,,,,,,,,,,,1.2,1.02,0.957,0.96,0.998
EBC-1,0.11,0.0946,0.106,0.0866,0.1,,,,,,,,,,,0.516,0.528,0.535,0.715,0.542
SW 1573,0.913,0.978,0.884,0.987,0.963,0.498,0.524,0.584,0.551,0.577,0.611,0.62,0.616,0.531,0.391,1.15,1.04,1.41,1.3,0.861
A-427,0.98,1.11,1.03,0.98,1.18,0.851,0.656,0.728,,0.642,0.772,0.724,0.677,0.72,0.723,1.01,0.968,1.06,,0.841
NCI-H2347,,0.618,0.885,0.857,1.04,0.307,0.307,0.318,0.285,0.342,0.315,0.323,0.267,0.326,0.28,0.913,0.76,0.892,0.827,0.746
NCI-H1355,0.987,0.678,0.93,1.02,0.971,0.655,0.798,0.706,,0.667,0.462,0.455,,0.421,0.337,1.3,1.21,1.33,0.978,1.16
NCI-H358,0.732,0.632,0.85,0.535,0.632,0.147,0.142,0.156,0.168,0.211,0.138,0.135,0.122,0.16,0.124,,,,,
PC-3 [JPC-3],1.09,0.937,1.06,1.04,1.02,1.01,1.02,0.982,0.956,0.788,0.773,0.601,,0.72,0.844,0.909,0.805,0.841,,0.885
NCI-H2228,0.672,0.744,0.945,0.854,0.717,0.625,0.581,0.471,0.363,0.43,0.497,0.503,0.494,0.406,0.208,1.25,0.922,0.949,1.1,0.932
HOP-62,1.13,1.03,1.12,1.05,0.986,0.673,0.652,0.709,0.531,0.564,0.399,0.354,0.353,0.392,0.334,0.926,1.05,0.701,0.753,0.77
HARA,0.834,0.87,0.896,0.885,0.878,0.273,0.184,0.325,,0.276,,,,0.586,0.667,1.19,1.21,1.1,1.17,0.971
NCI-H838,1.06,0.922,1.08,1.06,0.969,0.31,0.31,0.32,0.3,0.281,0.497,0.51,0.412,0.473,0.46,0.869,0.952,0.904,0.624,0.564
NCI-H1755,0.907,0.905,0.857,0.929,0.921,0.455,0.528,0.426,0.409,0.36,0.792,0.74,0.729,0.827,0.725,1.15,1.06,1.03,1.09,0.92

Cell Line,relative viability ([1]; first compound 0.08 µM),relative viability ([1]; first compound 0.253 µM),relative viability ([1]; first compound 0.8 µM),relative viability ([1]; first compound 2.53 µM),relative viability ([1]; first compound 8 µM),relative viability ([2]; first compound 0.08 µM),relative viability ([2]; first compound 0.253 µM),relative viability ([2]; first compound 0.8 µM),relative viability ([2]; first compound 2.53 µM),relative viability ([2]; first compound 8 µM),relative viability ([3]; first compound 0.08 µM),relative viability ([3]; first compound 0.253 µM),relative viability ([3]; first compound 0.8 µM),relative viability ([3]; first compound 2.53 µM),relative viability ([3]; first compound 8 µM),relative viability ([4]; first compound 0.08 µM),relative viability ([4]; first compound 0.253 µM),relative viability ([4]; first compound 0.8 µM),relative viability ([4]; first compound 2.53 µM),relative viability ([4]; first compound 8 µM)
HCC-78,0.556,0.561,0.52,0.541,0.576,0.378,0.389,0.324,0.373,0.336,0.719,,0.741,0.578,0.743,0.712,0.562,0.49,0.381,0.596
IA-LM,1.19,1.14,1.18,1.14,1.08,,,,,,,,,,,0.917,0.899,0.904,0.782,0.824
NCI-H322M,0.87,0.937,0.903,0.975,0.91,0.251,0.251,0.257,0.265,0.238,,0.482,0.475,0.497,0.438,1.22,1.2,1.12,1.17,1.29
NCI-H3122,0.957,0.952,0.934,0.993,0.921,,0.816,0.854,0.892,1.01,0.19,0.244,0.196,0.264,0.119,0.962,1.02,1.08,1.09,0.996
COR-L23,0.856,0.832,1.03,0.982,0.991,0.517,0.504,0.585,0.537,0.551,0.678,0.519,0.608,0.508,0.355,1.12,1.1,1.21,0.932,1.08
NCI-H2087,1.19,1.02,1.21,1.07,1.11,0.963,0.973,1.12,,0.681,0.224,0.19,0.198,,0.235,1.12,0.978,0.93,0.914,0.616
LC-2-ad,0.88,0.838,,0.789,0.877,0.466,0.524,0.523,0.491,0.42,0.896,0.675,0.953,0.842,0.967,1.03,1.08,1.1,1.03,0.97
NCI-H1793,0.739,0.71,,0.593,0.554,0.458,0.298,0.403,,0.409,,0.453,,0.434,0.4,,,,,
NCI-H1792,,,,,,0.937,0.876,1.03,0.556,0.803,0.429,0.435,,0.414,0.375,1.03,1.07,1.1,0.879,0.662
NCI-H522,,,,,,0.807,0.872,0.748,0.759,0.907,0.798,0.712,,0.676,0.873,,,,,
NCI-H1299,1.12,1.06,1.15,1.07,1.07,,,,,,,,,,,1.08,1.06,1.09,0.989,0.945
NCI-H1648,,,,,,,,,,,0.485,0.445,,0.456,0.493,,,,,
SK-MES-1,1.09,0.724,0.779,0.934,0.836,0.376,0.467,0.335,0.405,0.315,0.604,0.515,0.521,0.623,0.571,,,,,
NCI-H2342,1,1.01,1.06,0.959,0.993,0.328,0.344,0.32,0.301,0.307,0.755,0.841,0.746,0.738,0.641,,,,,
SW 900,0.823,0.947,1.08,1.17,0.833,0.664,0.529,0.7,0.556,0.742,,0.819,,0.871,0.619,,,,,
LK-2,1.17,0.95,,1.19,0.993,0.221,0.185,0.264,0.24,0.28,0.599,0.661,0.628,0.621,0.516,,,,,
NCI-H1395,1.06,0.889,0.981,0.997,0.963,0.422,0.451,0.457,0.374,0.374,0.961,1.01,0.936,1.03,0.773,,,,,
A549,1.01,0.898,1.03,0.991,0.866,,,,,,,,,,,,,,,
NCI-H2170,1.01,0.962,1.03,1.04,0.915,0.601,0.737,0.558,0.526,0.497,0.874,0.886,0.858,0.946,0.637,,,,,
NCI-H1563,0.995,0.961,0.866,1.01,0.82,0.532,0.481,0.429,0.462,0.447,,,,,,0.822,0.831,0.885,0.775,0.552
ABC-1,0.938,0.929,1.03,1.03,0.76,0.696,0.603,0.615,,0.542,,,,,,0.327,0.281,0.256,,0.312
